Measured values: US6444669B1, “8,8A-DIHYDROINDENO[1,2-D]THIAZOLE DERIVATIVES WHICH CARRY IN THE 2-POSITION A SUBSTITUENT HAVING A SULFONAMIDE STRUCTURE OR SULFONE STRUCTURE; PROCESSES FOR THEIR PREPARATION AND THEIR USE AS MEDICAMENTS” (Aventis Pharma Deutschland GmbH, priority 2000, dated 2002)

Tests used:
male or female NMRI mice = assay: Anorectic action: cumulated evaporated milk consumption after 24 h feed withdrawal; format: in vivo
Procedure: The anorectic action was tested on male or female NMRI mice. After withdrawal of feed for 24 hours, the test preparation was administered via a stomach tube. Kept individually and with free access to drinking water, the animals were offered evaporated milk 30 minutes after the administration of the preparation. The consumption of evaporated milk was determined half-hourly for 3 hours and the general condition of the animals was observed. The measured milk consumption was compared with that of untreated control animals.

melting point: 160 °C
SMILES: NS(=O)(=O)c1ccc(C2=NC3(O)c4ccc(Cl)cc4CC3S2)cc1 (stereo not drawn) [Example 5, 4-(6-Chloro-3a-hydroxy-8,8a-dihydro-3aH-indeno[1,2-d]thiazol-2-yl)benzenesulfonamide]
Reduction of the cumulated milk consumption in % of the control (male or female NMRI mice; male animals, oral dose 50 mg/kg, compared with untreated control animals): 95% | cumulated milk consumption of the treated animals (male or female NMRI mice; oral dose 50 mg/kg via stomach tube, N=5, milk consumption determined half-hourly for 3 hours): 5/0.08 ml
